Source: patent US12187742B2 (XRAD Therapeutics, Inc., priority 2018, dated 2025)
Counter-ions that a name gives are not always drawn.

These molecules were tested against ATM (Homo sapiens (Human), UniProt Q13315) (assay: ATM in Cell Western Assay (pKAP1 in etoposide-treated MCF-7 cells)). Settings: MCF-7 cells, etoposide 100 μM, 1 hr, pKAP1 readout.
Format: cell-based
Procedure: Assay of Compounds ATM and DNA-PK Inhibition
ATM in Cell Western Assay:
Next day, add corresponding concentration of compounds using pin tool (Echo 550), the final top concentration is 1 μM, 3-fold series dilution, total 10 doses. Then add etoposide (Sigma, #E1383) to a final concentration of 100 μM. Incubate at 37° C. for 1 hr. Fix cells by adding 25 μL of fixing solution (8% paraformaldehyde) for 20 minutes at ambient temperature. Permeabilize cells for 5 washes with 1×PBS (phosphate buffered saline) containing 0.1% Triton X-100; each wash is for 5 minutes. […] The next day, wash the plate 5 times with 1×PBST (1×PBS containing 0.1% Tween-20). […] Wash the cells for 5 times with 1×PBST (1×PBS containing 0.1% Tween-20) at ambient temperature, using gentle shaking in the dark. After the last wash
remove wash solution, turn plate upside down onto a thin paper towel and centrifuge at 1000 rpm for 1 min to absorb all wash buffer. Clean the bottom of plate with moist lint free paper. Scan plate immediately using ODYSSEY CLx (LI-COR) for the best results.

Sequence of ATM (Q13315 whole entry): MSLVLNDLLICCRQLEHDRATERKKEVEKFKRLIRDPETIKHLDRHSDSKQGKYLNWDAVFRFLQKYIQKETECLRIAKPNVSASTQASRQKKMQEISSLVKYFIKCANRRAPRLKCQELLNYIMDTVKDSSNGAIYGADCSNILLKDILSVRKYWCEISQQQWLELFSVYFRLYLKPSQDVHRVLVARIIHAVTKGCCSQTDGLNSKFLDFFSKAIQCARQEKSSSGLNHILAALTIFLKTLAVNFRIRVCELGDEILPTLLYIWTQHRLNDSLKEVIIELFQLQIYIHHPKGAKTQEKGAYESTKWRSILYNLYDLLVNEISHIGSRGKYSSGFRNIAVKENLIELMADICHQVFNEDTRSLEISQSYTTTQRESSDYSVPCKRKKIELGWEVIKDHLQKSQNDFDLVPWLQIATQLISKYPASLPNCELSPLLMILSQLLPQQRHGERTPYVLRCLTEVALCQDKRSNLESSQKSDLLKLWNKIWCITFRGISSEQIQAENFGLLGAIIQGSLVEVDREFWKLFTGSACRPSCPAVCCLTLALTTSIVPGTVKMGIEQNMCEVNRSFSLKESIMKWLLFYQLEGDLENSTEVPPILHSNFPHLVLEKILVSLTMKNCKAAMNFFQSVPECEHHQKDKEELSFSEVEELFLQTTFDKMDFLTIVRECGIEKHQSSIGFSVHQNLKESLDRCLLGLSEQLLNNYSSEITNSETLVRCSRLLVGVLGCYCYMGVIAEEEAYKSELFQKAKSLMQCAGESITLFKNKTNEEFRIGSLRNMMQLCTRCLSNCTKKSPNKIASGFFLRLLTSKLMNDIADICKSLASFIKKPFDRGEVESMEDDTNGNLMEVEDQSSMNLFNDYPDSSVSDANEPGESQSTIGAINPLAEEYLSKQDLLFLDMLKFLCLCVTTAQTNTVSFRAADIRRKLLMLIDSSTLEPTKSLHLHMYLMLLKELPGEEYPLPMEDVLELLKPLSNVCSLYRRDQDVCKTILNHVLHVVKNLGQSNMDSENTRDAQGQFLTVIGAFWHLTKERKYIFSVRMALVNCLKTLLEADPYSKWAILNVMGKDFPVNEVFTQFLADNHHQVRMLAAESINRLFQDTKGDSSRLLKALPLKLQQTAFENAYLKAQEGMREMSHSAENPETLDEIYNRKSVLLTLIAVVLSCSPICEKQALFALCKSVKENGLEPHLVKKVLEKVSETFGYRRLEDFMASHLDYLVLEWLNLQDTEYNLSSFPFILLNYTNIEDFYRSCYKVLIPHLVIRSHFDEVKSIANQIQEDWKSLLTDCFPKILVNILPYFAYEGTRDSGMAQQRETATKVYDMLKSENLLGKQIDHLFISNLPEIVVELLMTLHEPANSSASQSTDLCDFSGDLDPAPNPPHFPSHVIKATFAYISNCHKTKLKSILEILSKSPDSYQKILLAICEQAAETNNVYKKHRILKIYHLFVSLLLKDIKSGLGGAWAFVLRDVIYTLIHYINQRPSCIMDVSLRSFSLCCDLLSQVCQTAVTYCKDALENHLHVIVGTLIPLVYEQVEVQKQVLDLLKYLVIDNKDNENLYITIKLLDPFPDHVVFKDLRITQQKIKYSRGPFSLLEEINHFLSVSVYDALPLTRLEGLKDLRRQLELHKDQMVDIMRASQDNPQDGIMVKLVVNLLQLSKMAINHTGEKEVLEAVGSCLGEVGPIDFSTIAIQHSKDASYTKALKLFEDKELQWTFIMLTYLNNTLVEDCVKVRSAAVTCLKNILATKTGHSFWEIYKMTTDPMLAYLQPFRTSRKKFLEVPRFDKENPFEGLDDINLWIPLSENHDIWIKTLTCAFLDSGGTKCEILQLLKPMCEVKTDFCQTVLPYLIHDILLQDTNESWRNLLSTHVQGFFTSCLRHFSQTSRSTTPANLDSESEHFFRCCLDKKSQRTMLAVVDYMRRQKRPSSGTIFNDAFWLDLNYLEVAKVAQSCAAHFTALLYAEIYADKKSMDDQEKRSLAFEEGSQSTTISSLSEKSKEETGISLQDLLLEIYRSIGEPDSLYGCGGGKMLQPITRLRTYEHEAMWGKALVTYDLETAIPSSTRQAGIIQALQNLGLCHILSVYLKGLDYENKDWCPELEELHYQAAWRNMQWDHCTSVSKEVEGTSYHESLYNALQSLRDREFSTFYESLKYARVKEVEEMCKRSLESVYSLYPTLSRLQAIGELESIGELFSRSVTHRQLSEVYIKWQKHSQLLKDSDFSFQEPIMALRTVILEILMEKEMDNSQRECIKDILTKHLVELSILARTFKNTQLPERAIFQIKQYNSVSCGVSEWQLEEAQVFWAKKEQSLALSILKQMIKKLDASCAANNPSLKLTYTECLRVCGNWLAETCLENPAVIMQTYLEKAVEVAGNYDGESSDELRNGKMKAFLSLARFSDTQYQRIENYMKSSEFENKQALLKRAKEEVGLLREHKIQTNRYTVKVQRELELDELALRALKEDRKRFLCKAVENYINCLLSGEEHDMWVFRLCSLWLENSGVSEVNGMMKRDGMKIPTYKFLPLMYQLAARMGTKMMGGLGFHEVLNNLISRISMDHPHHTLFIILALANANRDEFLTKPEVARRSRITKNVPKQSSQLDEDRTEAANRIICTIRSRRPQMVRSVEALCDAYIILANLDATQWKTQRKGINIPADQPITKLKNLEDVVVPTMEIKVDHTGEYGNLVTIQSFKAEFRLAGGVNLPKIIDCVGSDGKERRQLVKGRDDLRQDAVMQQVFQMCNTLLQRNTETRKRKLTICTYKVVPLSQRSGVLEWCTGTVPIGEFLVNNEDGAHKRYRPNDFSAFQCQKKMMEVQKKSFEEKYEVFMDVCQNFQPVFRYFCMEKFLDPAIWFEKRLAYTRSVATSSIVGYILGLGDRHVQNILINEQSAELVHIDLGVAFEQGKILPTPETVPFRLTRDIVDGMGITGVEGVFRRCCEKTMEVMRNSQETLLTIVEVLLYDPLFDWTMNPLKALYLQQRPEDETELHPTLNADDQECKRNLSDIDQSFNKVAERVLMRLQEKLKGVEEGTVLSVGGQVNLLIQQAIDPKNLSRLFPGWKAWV

IC50, 0.5 to 1 nM:
CN(C)CCCOc1ncc(-c2ccc3ncc4c(c3c2)C2(CC2)C(=O)N4C)cc1NS(=O)(=O)c1cccs1 [Example 120]

IC50, 1 to 100 nM:
CN(C)CCCOc1ncc(-c2ccc3ncc4c(c3c2)C2(CC2)C(=O)N4C)cc1NS(=O)(=O)c1cccnc1 [Example 85]
CN(C)CCCNc1ccc(-c2ccc3ncc4c(c3c2)C2(CC2)C(=O)N4C)cn1 [Example 94, 8′-(6-((3-(Dimethylamino)propyl)amino)pyridin-3-yl)-3′-methylspiro [cyclopropane-1,1′-pyrrolo[2,3-c]quinolin]-2′(3′-H)-one]
CC(=O)Nc1ccc(S(=O)(=O)Nc2cc(-c3ccc4ncc5c(c4c3)C3(CC3)C(=O)N5C)cnc2OCCCN(C)C)cc1 [Example 101, N-(4-(N-(2-(3-(Dimethylamino)propoxy)-5-(3′-methyl-2′-oxo-2′,3′-dihydrospiro [cyclopropane-1,1′-pyrrolo[2,3-c]quinolin]-8′-yl)pyridin-3-yl)sulfamoyl)phenyl) acetamide]
CN(C)CCCOc1ncc(-c2ccc3ncc4c(c3c2)C2(CC2)C(=O)N4C)cc1NS(=O)(=O)c1ccc(Cl)nc1 [Example 105, 6-Chloro-N-(2-(3-(dimethylamino)propoxy)-5-(3′-methyl-2′-oxo-2′,3′-dihydrospiro[cyclopropane-1,1′-pyrrolo[2,3-c]quinolin]-8′-yl)pyridin-3-yl)pyridine-3-sulfonamide]
CN(C)CC1CN(c2ncc(-c3ccc4ncc5c(c4c3)C3(CC3)C(=O)N5C)cc2NS(=O)(=O)C2CC2)C1 [Example 122, N-(2-(3-((Dimethylamino)methyl)azetidin-1-yl)-5-(3′-methyl-2′-oxo-2′,3′-dihydrospiro[cyclopropane-1,1′-pyrrolo[2,3-c]quinolin]-8′-yl)pyridin-3-yl)cyclopropanesulfonamide]
CN(C)CCCOc1ncc(-c2ccc3ncc4c(c3c2)C2(CCC2)C(=O)N4C)cc1NS(=O)(=O)N1CCCc2ccccc21 [Example 139]

IC50, < 0.5 nM:
CN(C)CCCOc1ncc(-c2ccc3ncc4c(c3c2)C2(CC2)C(=O)N4C)cc1NS(=O)(=O)c1ccc(C(F)(F)F)cc1 [Example 108]

IC50, > 100 nM:
CN(C)CCCOc1ncc(-c2ccc3ncc4c(c3c2)N(C)C2(CC2)C(=O)N4)cc1NS(=O)(=O)c1ccccc1 [Example 87, N-(2-(3-(Dimethylamino)propoxy)-5-(1′-methyl-3′-oxo-3′-,4′-dihydro-1′H-spiro[cyclopropane-1,2′-pyrazino[2,3-c]quinolin]-9′-yl)pyridin-3-yl) benzenesulfonamide]
CC(Oc1cc(-c2ccc3ncc4c(c3c2)C2(CC2)C(=O)N4C)cnc1OCCCN(C)C)c1ccccc1 (stereo not shown) [Example 95, 8′-(6-(3-(Dimethylamino)propoxy)-5-(1-phenylethoxy)pyridin-3-yl)-3′-methylspiro[cyclopropane-1,1′-pyrrolo[2,3-c]quinolin]-2′(3′-H)-one]
Cc1oncc1S(=O)(=O)Nc1cc(-c2ccc3ncc4c(c3c2)C2(CC2)C(=O)N4C)cnc1OCCCN(C)C [Example 99, N-(2-(3-(Dimethylamino)propoxy)-5-(3′-methyl-2′-oxo-2′,3′-dihydrospiro [cyclopropane-1,1′-pyrrolo[2,3-c]quinolin]-8′-yl)pyridin-3-yl)-5-methylisoxazole-4-sulfonamide]
CN1CC(COc2ncc(-c3ccc4ncc5c(c4c3)C3(CC3)C(=O)N5C)cc2NS(=O)(=O)c2ccccc2)C1 [Example 110, N-(5-(3′-Methyl-2′-oxo-2′,3′-dihydrospiro[cyclopropane-1,1′-pyrrolo[2,3-c]quinolin]-8′-yl)-2-((1-methylazetidin-3-yl)methoxy)pyridin-3-yl)benzenesulfonamide]
CN1C(=O)C2(CCC2)c2c1cnc1ccc(-c3cnc(N4CCS(=O)(=O)CC4)c(NS(=O)(=O)c4ccccc4)c3)cc21 [Example 135, N-(2-(1,1-Dioxidothiomorpholino)-5-(3′-methyl-2′-oxo-2′,3′-dihydrospiro[cyclobulane-1,1′-pyrrolo[2,3-c]quinolin]-8′-yl)pyridin-3-yl)benzenesulfonamide hydrochloride]
